Experiments:
Assay type in all cases: cell-based, mouse
[1] = system: α7 integrin (LacZ reporter in α7βgal+/− myoblasts); test: Myoblast α7+/LacZ integrin FDG assay (Burkin assay in myoblasts, 96-well); conditions: 96-well; for Burkin Assay in Myoblasts, value relative to DMSO: SU9516 analogs, N=3-6; for Burkin Assay in Myoblasts, signal relative to DMSO: α7+/LacZ myoblasts
[2] = system: α7 integrin (LacZ reporter in α7+/LacZ myotubes); test: Myotube α7 integrin FDG assay (Burkin assay in myotubes, 96-well); conditions: for Burkin Assay in Myotubes, value relative to DMSO: SU9516 analogs, 96-well, N=3-6
[3] = system: β-galactosidase in CMV-LacZ C2C12 myoblasts; test: CMV-LacZ secondary screen in C2C12 myoblasts (β-Gal stabilizing assay); conditions: for CMV-LACZ in Myoblasts, value relative to DMSO: SU9516 analogs, C2C12 CMV-LacZ, N=2; for CMV-LACZ in Myoblasts (β-galactosidase activity relative to DMSO): CMV-LacZ C2C12 myoblasts
Procedure, shortened: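 β-Gal level was the read-out, measured in a clonal C2C12 line expressing LacZ from a CMV promoter. Dose-response curves used six concentrations, 0.5 μM up to 40 μM, with duplicate points.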

[4] = system: β-galactosidase in CMV-LacZ C2C12 myotubes; test: CMV-LacZ secondary screen in C2C12 myotubes (β-Gal stabilizing assay); conditions: for CMV-LACZ in Myotubes, value relative to DMSO: SU9516 analogs, C2C12 CMV-LacZ, N=2; for CMV-LACZ in Myotubes, signal relative to DMSO: C2C12 CMV-LacZ myotubes, fold relative to DMSO
Procedure, shortened: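 A secondary screen identifies compounds that stabilize β-gal independently of the native promoter, using CMV-LacZ C2C12 cells. Curves span 0.5–40 μM at six levels, in duplicate.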

In the case of `Cc1[nH]c(/C=C2\C(=O)Nc3ccc(S(=O)(=O)Cc4c(Cl)cccc4Cl)cc32)c(C)c1C(=O)C1CCCN1CN1CCCC1` (stereo not drawn) [NCGC00242500-01], the “Burkin Assay in Myoblasts, value relative to DMSO” value ([1]; 0.5 uM) is reported as 1.052, the “Burkin Assay in Myoblasts, value relative to DMSO” value ([1]; 1 uM) is reported as 1.076 and the “Burkin Assay in Myoblasts, value relative to DMSO” value ([1]; 5 uM) is reported as 0.8704. The “Burkin Assay in Myoblasts, value relative to DMSO” value ([1]; 10 uM) was 0.5879, the “Burkin Assay in Myoblasts, value relative to DMSO” value ([1]; 20 uM) was 0.01841 and the “Burkin Assay in Myoblasts, value relative to DMSO” value ([1]; 40 uM) was 0.01945. The “Burkin Assay in Myotubes, value relative to DMSO” value ([2]; 0.5 uM) was 0.9974, the “Burkin Assay in Myotubes, value relative to DMSO” value ([2]; 1 uM) was 0.9391 and the “Burkin Assay in Myotubes, value relative to DMSO” value ([2]; 5 uM) was 0.9422. The “Burkin Assay in Myotubes, value relative to DMSO” value ([2]; 10 uM) was 0.7534, the “Burkin Assay in Myotubes, value relative to DMSO” value ([2]; 20 uM) was 0.652 and the “Burkin Assay in Myotubes, value relative to DMSO” value ([2]; 40 uM) was 0.2132. For the same molecule, the “CMV-LACZ in Myoblasts, value relative to DMSO” value ([3]; 0.5 uM) was 1.1021, the “CMV-LACZ in Myoblasts, value relative to DMSO” value ([3]; 1 uM) was 1.1446 and the “CMV-LACZ in Myoblasts, value relative to DMSO” value ([3]; 5 uM) was 1.6977. The “CMV-LACZ in Myoblasts, value relative to DMSO” value ([3]; 10 uM) was 2.4909, the “CMV-LACZ in Myoblasts, value relative to DMSO” value ([3]; 20 uM) was 0.3570 and the “CMV-LACZ in Myoblasts, value relative to DMSO” value ([3]; 40 uM) was 0.4237. For the same molecule, the “CMV-LACZ in Myotubes, value relative to DMSO” value ([4]; 0.5 uM) was 1.2482, the “CMV-LACZ in Myotubes, value relative to DMSO” value ([4]; 1 uM) was 1.9682 and the “CMV-LACZ in Myotubes, value relative to DMSO” value ([4]; 5 uM) was 2.2432. The “CMV-LACZ in Myotubes, value relative to DMSO” value ([4]; 10 uM) was 3.3039, the “CMV-LACZ in Myotubes, value relative to DMSO” value ([4]; 20 uM) was 5.2430 and the “CMV-LACZ in Myotubes, value relative to DMSO” value ([4]; 40 uM) was 7.0800.

`O=c1c2cc(-c3ccccc3)sc2nc2n1N=C(c1ccccc1)CS2` [MLS000858981-01] was tested, and the “Burkin Assay in Myoblasts, signal relative to DMSO” value ([1]; 0.5 uM) was 0.953, the “Burkin Assay in Myoblasts, signal relative to DMSO” value ([1]; 1 uM) was 0.999 and the “Burkin Assay in Myoblasts, signal relative to DMSO” value ([1]; 5 uM) was 1.186. The “Burkin Assay in Myoblasts, signal relative to DMSO” value ([1]; 10 uM) was 1.01, the “Burkin Assay in Myoblasts, signal relative to DMSO” value ([1]; 20 uM) was 1.0113 and the “Burkin Assay in Myoblasts, signal relative to DMSO” value ([1]; 40 uM) was 1.005. For the same molecule, the “Burkin Assay in Myotubes, α7 integrin LacZ reporter signal relative to DMSO” value ([2]; 0.5 uM) was 1.027, the “Burkin Assay in Myotubes, α7 integrin LacZ reporter signal relative to DMSO” value ([2]; 1 uM) was 0.8837 and the “Burkin Assay in Myotubes, α7 integrin LacZ reporter signal relative to DMSO” value ([2]; 5 uM) was 1.055. For the same molecule, the “Burkin Assay in Myotubes, α7 integrin LacZ reporter signal relative to DMSO” value ([2]; 10 uM) was 0.8922, the “Burkin Assay in Myotubes, α7 integrin LacZ reporter signal relative to DMSO” value ([2]; 20 uM) was 0.8526 and the “Burkin Assay in Myotubes, α7 integrin LacZ reporter signal relative to DMSO” value ([2]; 40 uM) was 0.8173. The “CMV-LACZ in Myoblasts (β-galactosidase activity relative to DMSO)” value ([3]; 0.5 uM) was 0.9229, the “CMV-LACZ in Myoblasts (β-galactosidase activity relative to DMSO)” value ([3]; 1 uM) was 0.9696 and the “CMV-LACZ in Myoblasts (β-galactosidase activity relative to DMSO)” value ([3]; 5 uM) was 1.1687. For the same molecule, the “CMV-LACZ in Myoblasts (β-galactosidase activity relative to DMSO)” value ([3]; 10 uM) was 0.9009, the “CMV-LACZ in Myoblasts (β-galactosidase activity relative to DMSO)” value ([3]; 20 uM) was 0.9985 and the “CMV-LACZ in Myoblasts (β-galactosidase activity relative to DMSO)” value ([3]; 40 uM) was 0.9696. The “CMV-LACZ in Myotubes, signal relative to DMSO” value ([4]; 0.5 uM) was 1.0257, the “CMV-LACZ in Myotubes, signal relative to DMSO” value ([4]; 1 uM) was 0.8419 and the “CMV-LACZ in Myotubes, signal relative to DMSO” value ([4]; 5 uM) was 1.0786. For the same molecule, the “CMV-LACZ in Myotubes, signal relative to DMSO” value ([4]; 10 uM) was 0.9781, the “CMV-LACZ in Myotubes, signal relative to DMSO” value ([4]; 20 uM) was 1.0421 and the “CMV-LACZ in Myotubes, signal relative to DMSO” value ([4]; 40 uM) was 1.0000.

— patent US9980943B2, “Methods of treating muscular dystrophy” (BOARD OF REGENTS OF THE NEVADA SYSTEM OF HIGHER EDUCATION, …, priority 2013, dated 2018)
